# According to US5013549A, “Production, isolation, and identification of novel antifungal compounds” (priority 1990, dated 1991):
# Entries after “also recorded” stand apart in the source; their conditions may differ. Where two headings read alike, the source gives them in different places.
# Key:
# [1] = system: fungi; details: known related compounds; cited from earlier work
# [2] = cited from earlier work
# [3] = system: Aspergillus fumigatus; experiment: Minimum inhibitory concentration, Aspergillus fumigatus; format: cell-based
# Procedure: (§1) Known amounts of the purified substance were dissolved in DMSO and serial dilutions prepared in the same solvent. A 20 ul volume of each dilution was placed on the surface of Emmon's agar in petri-dishes seeded with various test strains of pathogenic and saprophytic fungi. The antibacterial activity was monitored using Muller-Hilton agar. The minimum inhibitory concentration (MIC) was determined by incorporating known amount of the DMSO dissolved purified substance into Emmon's liquid medium (same as stated earlier but devoid of agar) contained in test tubes. The tubes were inoculated with ca 2×10^3 CFU of the test organisms. The inoculated tubes were incubated at 26° C. and the results recorded after two to 5 days depending upon the growth pattern of the test organisms (certain fungi grow faster than others). Tubes inoculated in an identical manner but devoid of the active substance served as controls.
# [4] = system: Candida albicans; experiment: Minimum inhibitory concentration, Candida albicans; format: cell-based; details: 26° C., 2 to 5 days, Emmon's liquid medium, fungus
# Procedure: as §1
# [5] = system: R. glutinis; experiment: Minimum inhibitory concentration, R. glutinis; format: cell-based; details: Rhodotorula glutinis
# Procedure: as §1
# [6] = system: C. neoformans- N-3; experiment: Minimum inhibitory concentration, C. neoformans- N-3; format: cell-based; details: Cryptococcus neoformans; N = encapsulated, mucoid strain with neurotropic tendencies; 26° C., 2 to 5 days
# Procedure: as §1
# [7] = system: Penicillium species; experiment: Minimum inhibitory concentration, Penicillium species; format: cell-based; details: 26° C., 2 to 5 days, Emmon's liquid medium, fungus
# Procedure: as §1
# [8] = system: Pseudomonas aeruginosa; experiment: Minimum inhibitory concentration, Pseudomonas aeruginosa; format: cell-based; details: bacterial strain
# Procedure: as §1
# [9] = system: C.neoformans serotype-D; experiment: Minimum inhibitory concentration, C.neoformans serotype-D; format: cell-based; details: Cryptococcus neoformans, 26° C., 2 to 5 days
# Procedure: as §1
# [10] = system: Citrobacter species; experiment: Minimum inhibitory concentration, Citrobacter species; format: cell-based; details: bacterial strain
# Procedure: as §1
# [11] = system: Plebsiella pneumoniae; experiment: Minimum inhibitory concentration, Plebsiella pneumoniae; format: cell-based
# Procedure: as §1
# [12] = Solubility; format: physicochemical
# [13] = system: A. niger; experiment: Minimum inhibitory concentration, A. niger; format: cell-based; details: Aspergillus niger; 26° C., 2 to 5 days, Emmon's liquid medium; fungus
# Procedure: as §1
# [14] = system: C. neoformans serotype-C; experiment: Minimum inhibitory concentration, C. neoformans serotype-C; format: cell-based; details: Cryptococcus neoformans
# Procedure: as §1
# [15] = system: Escherichia coli; experiment: Minimum inhibitory concentration, Escherichia coli; format: cell-based; details: bacterial strain
# Procedure: as §1
# [16] = system: Cladosporium species; experiment: Minimum inhibitory concentration, Cladosporium species; format: cell-based; details: 26° C., 2 to 5 days, Emmon's liquid medium, fungus
# Procedure: as §1
# [17] = system: A. flavus; experiment: Minimum inhibitory concentration, A. flavus; format: cell-based; details: Aspergillus flavus; 26° C., 2 to 5 days, Emmon's liquid medium; fungus
# Procedure: as §1
# [18] = system: S. aureus ATCC 25923; experiment: Minimum inhibitory concentration, S. aureus ATCC 25923; format: cell-based, Staphylococcus aureus; details: bacterial strain ATCC 25923
# Procedure: as §1
# [19] = system: Staphylococcus aureus ATCC 29213; experiment: Minimum inhibitory concentration, Staphylococcus aureus ATCC 29213; format: cell-based; details: bacterial strain ATCC 29213
# Procedure: as §1
# [20] = system: Cryptococcus neoformans-N-2; experiment: Minimum inhibitory concentration, Cryptococcus neoformans-N-2; format: cell-based; details: N = encapsulated, mucoid strain with neurotropic tendencies, 26° C., 2 to 5 days
# Procedure: as §1
# [21] = system: C. neoformans- G-3; experiment: Minimum inhibitory concentration, C. neoformans- G-3; format: cell-based; details: Cryptococcus neoformans
# Procedure: as §1
# [22] = system: C. quilliermondii; experiment: Minimum inhibitory concentration, C. quilliermondii; format: cell-based
# Procedure: as §1
# [23] = system: S. aureus (multiple drug resistant); experiment: Minimum inhibitory concentration, S. aureus (multiple drug resistant); format: cell-based, Staphylococcus aureus; details: bacterial strain
# Procedure: as §1
# [24] = Stability in 2N HCl; format: physicochemical
# [25] = system: Rhodotorula rubra; experiment: Minimum inhibitory concentration, Rhodotorula rubra; format: cell-based
# Procedure: as §1
# [26] = system: murine tumors; details: more active than adriamycin; cited from earlier work
compound,measurement,setting,value
CCC1(O)CC(OC2CC(N(C)C)C(OC3CC(O)C(OC4CCC(=O)C(C)O4)C(C)O3)C(C)O2)c2c(cc3c(c2O)C(=O)c2c(O)ccc(O)c2C3=O)C1C(=O)OC (stereo not drawn) [cinerubin A],antifungal properties,[1],not significantly antifungal
same,solubility of known cinerubins,[2]; in ethanol,soluble
same,solubility of known cinerubins,[2]; in methanol,soluble
CCC1(O)CC(OC2CC(N(C)C)C(OC3CC(O)C(OC4CCC(=O)C(C)O4)C(C)O3)C(C)O2)c2c(cc3c(c2O)C(=O)c2c(O)ccc(O)c2C3=O)C1C(=O)OC (stereo not drawn) [spartanamicin B],MIC,[3],0.4 µg/mL
same,MIC,[4],0.2 µg/mL
same,MIC,[5],0.4 µg/mL
same,MIC,[6],0.6 µg/mL
same,MIC,[7],0.2 µg/mL
same,MIC,[8],100 µg/mL
same,MIC,[9],0.8 µg/mL
same,MIC,[10],not active
same,MIC,[11],100 µg/mL
same,Solubility,[12]; in 1-butanol,Sparingly soluble
same,Solubility,[12]; in 2N HCl,Insoluble
same,Solubility,"[12]; in N,N-dimethyl formamide (DMF)",Soluble
same,Solubility,[12]; in acetone,Soluble
same,Solubility,[12]; in acetonitrile,Sparingly soluble
same,Solubility,[12]; in carbon tetrachloride,Soluble
same,Solubility,[12]; in chloroform,Soluble
same,Solubility,[12]; in cyclohexane,Insoluble
same,Solubility,[12]; in dimethyl sulfoxide (DMSO),Soluble
same,Solubility,[12]; in ethanol,not soluble; also recorded: Sparingly soluble
same,Solubility,[12]; in ethyl acetate,Soluble
same,Solubility,[12]; in glacial acetic acid,Soluble
same,Solubility,[12]; in hexane,Insoluble
same,Solubility,[12]; in methanol,not soluble; also recorded: Sparingly soluble
same,Solubility,[12]; in toluene,Soluble
same,Solubility,[12]; in water,Insoluble
same,MIC,[13],0.6 µg/mL
same,MIC,[14],0.8 µg/mL
same,MIC,[15],not active
same,MIC,[16],0.4 µg/mL
same,MIC,[17],0.6 µg/mL
same,MIC,[18],0.8 µg/mL
same,MIC,[19],0.8 µg/mL
same,MIC,[20],0.8 µg/mL
same,MIC,[21],1 µg/mL
same,MIC,[22],0.8 µg/mL
same,MIC,[23],not active
same,stability upon standing in 2N HCl,[24],hydrolyses
same,MIC,[25],0.8 µg/mL
CC[C@@]1(O)C[C@H](O[C@H]2C[C@H](N(C)C)[C@H](O[C@H]3C[C@@H]4O[C@H]5CC(=O)[C@H](C)O[C@H]5O[C@@H]4[C@H](C)O3)[C@H](C)O2)c2c(cc3c(c2O)C(=O)c2c(O)ccc(O)c2C3=O)[C@H]1C(=O)OC [cinerubin B],antifungal properties,[1],not significantly antifungal
same,solubility of known cinerubins,[2]; in ethanol,soluble
same,solubility of known cinerubins,[2]; in methanol,soluble
CCN[C@H]1CO[C@@H](O[C@H]2[C@H](O[C@H]3C#C/C=C\C#C[C@]4(O)CC(=O)C(NC(=O)OC)=C3/C4=C\CSSSC)O[C@H](C)[C@@H](NO[C@H]3C[C@H](O)[C@H](SC(=O)c4c(C)c(I)c(O[C@@H]5O[C@@H](C)[C@H](O)[C@@H](OC)[C@H]5O)c(OC)c4OC)[C@@H](C)O3)[C@@H]2O)C[C@@H]1OC [Calicheamicin],activity relative to adriamycin against murine tumors,[26],approximately 1000 -fold
